From ChEMBL document CHEMBL1649156, “Antianaerobic activity of sulopenem compared to six other agents” (2009)
In brackets after ≈: the same amount, converted by molar mass.

What was measured:
Type in all cases: functional
[1] = system: Prevotella baroniae; test: Antimicrobial activity in Prevotella baroniae by CLSI agar dilution method; settings: Segatella baroniae
[2] = system: Hoylesella oralis; test: Antimicrobial activity in Prevotella oralis group by CLSI agar dilution method
[3] = system: Prevotella veroralis; test: Antimicrobial activity in Prevotella veroralis by CLSI agar dilution method
[4] = system: Prevotella bergensis; test: Antimicrobial activity in Prevotella bergensis by CLSI agar dilution method; settings: Hallella bergensis
[5] = system: Prevotella salivae; test: Antimicrobial activity in Prevotella salivae by CLSI agar dilution method; settings: Segatella salivae
[6] = system: Hoylesella loescheii; test: Antimicrobial activity in Prevotella loescheii by CLSI agar dilution method
[7] = system: Prevotella sp.; test: Antimicrobial activity in Prevotella sp.by CLSI agar dilution method
[8] = system: Porphyromonas asaccharolytica; test: Antimicrobial activity in Porphyromonas asaccharolytica by CLSI agar dilution method
[9] = system: Fusobacterium nucleatum; test: Antimicrobial activity in Fusobacterium nucleatum by CLSI agar dilution method
[10] = system: Fusobacterium necrophorum; test: Antimicrobial activity in Fusobacterium necrophorum by CLSI agar dilution method
[11] = system: Fusobacterium mortiferum; test: Antimicrobial activity in Fusobacterium mortiferum by CLSI agar dilution method
[12] = system: Fusobacterium varium; test: Antimicrobial activity in Fusobacterium varium by CLSI agar dilution method
[13] = system: Finegoldia magna; test: Antimicrobial activity in Finegoldia magna by CLSI agar dilution method
[14] = system: Parvimonas micra; test: Antimicrobial activity in Micromonas micros by CLSI agar dilution method
[15] = system: Peptostreptococcus anaerobius; test: Antimicrobial activity in Peptostreptococcus anaerobius by CLSI agar dilution method
[16] = system: Peptoniphilus asaccharolyticus; test: Antimicrobial activity in Peptoniphilus asaccharolyticus by CLSI agar dilution method
[17] = system: Anaerococcus tetradius; test: Antimicrobial activity in Anaerococcus tetradius by CLSI agar dilution method
[18] = system: Anaerococcus prevotii; test: Antimicrobial activity in Anaerococcus prevotii by CLSI agar dilution method
[19] = system: Lactobacillus; test: Antimicrobial activity in Lactobacillus by CLSI agar dilution method
[20] = system: Bifidobacterium; test: Antimicrobial activity in Bifidobacterium by CLSI agar dilution method
[21] = system: Cutibacterium acnes; test: Antimicrobial activity in Propionibacterium acnes by CLSI agar dilution method
[22] = system: Actinomyces; test: Antimicrobial activity in Actinomyces by CLSI agar dilution method
[23] = system: Eggerthella lenta; test: Antimicrobial activity in Eggerthella lenta by CLSI agar dilution method
[24] = system: Clostridium perfringens; test: Antimicrobial activity in Clostridium perfringens by CLSI agar dilution method
[25] = system: Clostridioides difficile; test: Antimicrobial activity in Clostridium difficile by CLSI agar dilution method
[26] = system: Clostridium sp.; test: Antimicrobial activity in Clostridium sp. by CLSI agar dilution method
[27] = system: Clostridium tertium; test: Antimicrobial activity in Clostridium tertium by CLSI agar dilution method
[28] = system: Thomasclavelia ramosa; test: Antimicrobial activity in Clostridium ramosum by CLSI agar dilution method
[29] = system: Clostridium cadaveris; test: Antimicrobial activity in Clostridium cadaveris by CLSI agar dilution method
[30] = system: Paraclostridium bifermentans; test: Antimicrobial activity in Clostridium bifermentans by CLSI agar dilution method
[31] = system: [Clostridium] innocuum; test: Antimicrobial activity in Clostridium innocuum by CLSI agar dilution method
[32] = system: Paeniclostridium sordellii; test: Antimicrobial activity in Clostridium sordellii by CLSI agar dilution method; settings: Paraclostridium sordellii
[33] = system: Clostridium butyricum; test: Antimicrobial activity in Clostridium butyricum by CLSI agar dilution method
[34] = system: Enterocloster clostridioformis; test: Antimicrobial activity in Clostridium clostridioforme by CLSI agar dilution method
[35] = system: Bacteroides fragilis; test: Antimicrobial activity in Bacteroides fragilis by CLSI agar dilution method
[36] = system: Bacteroides thetaiotaomicron; test: Antimicrobial activity in Bacteroides thetaiotaomicron by CLSI agar dilution method
[37] = system: Bacteroides ovatus; test: Antimicrobial activity in Bacteroides ovatus by CLSI agar dilution method
[38] = system: Phocaeicola vulgatus; test: Antimicrobial activity in Bacteroides vulgatus by CLSI agar dilution method
[39] = system: Parabacteroides distasonis; test: Antimicrobial activity in Bacteroides distasonis by CLSI agar dilution method
[40] = system: Bacteroides uniformis; test: Antimicrobial activity in Bacteroides uniformis by CLSI agar dilution method
[41] = system: Bacteroides stercoris; test: Antimicrobial activity in Bacteroides stercoris by CLSI agar dilution method
[42] = system: Prevotella bivia; test: Antimicrobial activity in Prevotella bivia by CLSI agar dilution method
[43] = system: Prevotella buccae; test: Antimicrobial activity in Prevotella buccae by CLSI agar dilution method; settings: Segatella buccae
[44] = system: Prevotella melaninogenica; test: Antimicrobial activity in Prevotella melaninogenica by CLSI agar dilution method
[45] = system: Prevotella denticola; test: Antimicrobial activity in Prevotella denticola by CLSI agar dilution method
[46] = system: Prevotella intermedia; test: Antimicrobial activity in Prevotella intermedia by CLSI agar dilution method
[47] = system: Prevotella nigrescens; test: Antimicrobial activity in Prevotella nigrescens by CLSI agar dilution method
[48] = system: Prevotella corporis; test: Antimicrobial activity in Prevotella corporis by CLSI agar dilution method
[49] = system: Prevotella disiens; test: Antimicrobial activity in Prevotella disiens by CLSI agar dilution method
[50] = system: Tissierella praeacuta; test: Antimicrobial activity in Clostridium hastiforme by CLSI agar dilution method
[51] = system: Porphyromonas gingivalis; test: Antimicrobial activity in Porphyromonas gingivalis by CLSI agar dilution method

C[C@@H](O)[C@H]1C(=O)N2C(C(=O)O)=C(SCCNC=N)C[C@H]12 [IMIPENEM ANHYDROUS]
MIC [1]: 0.03 µg/mL (≈ 0.1 µM)
MIC [2]: ≤ 0.016 µg/mL
MIC [3]: 0.03 µg/mL (≈ 0.1 µM)
MIC [4]: 0.06 µg/mL (≈ 0.2 µM)
MIC [5]: 0.03 µg/mL (≈ 0.1 µM)
MIC [6]: 0.03 µg/mL (≈ 0.1 µM)
MIC [7]: 0.03 µg/mL (≈ 0.1 µM)
MIC [8]: ≤ 0.016 µg/mL
MIC50 [9]: 0.03 µg/mL (≈ 0.1 µM)
MIC90 [9]: 0.06 µg/mL (≈ 0.2 µM)
MIC [10]: ≤ 0.016 µg/mL
MIC50 [10]: ≤ 0.016 µg/mL
MIC50 [11]: 0.5 µg/mL (≈ 1.67 µM)
MIC90 [11]: 1 µg/mL (≈ 3.34 µM)
MIC [12]: 0.5 µg/mL (≈ 1.67 µM)
MIC50 [12]: 0.5 µg/mL (≈ 1.67 µM)
MIC90 [12]: 1 µg/mL (≈ 3.34 µM)
MIC [13]: 0.06 µg/mL (≈ 0.2 µM)
MIC50 [13]: 0.06 µg/mL (≈ 0.2 µM)
MIC90 [13]: 0.125 µg/mL (≈ 0.418 µM)
MIC [14]: 0.03 µg/mL (≈ 0.1 µM)
MIC50 [14]: 0.03 µg/mL (≈ 0.1 µM)
MIC90 [14]: 0.06 µg/mL (≈ 0.2 µM)
MIC [15]: 0.06 µg/mL (≈ 0.2 µM)
MIC50 [15]: 0.06 µg/mL (≈ 0.2 µM)
MIC90 [15]: 1 µg/mL (≈ 3.34 µM)
MIC [16]: ≤ 0.016 µg/mL
MIC50 [16]: ≤ 0.016 µg/mL
MIC50 [17]: 0.03 µg/mL (≈ 0.1 µM)
MIC90 [17]: 0.06 µg/mL (≈ 0.2 µM)
MIC [18]: ≤ 0.016 µg/mL
MIC50 [19]: 1 µg/mL (≈ 3.34 µM)
MIC90 [19]: 2 µg/mL (≈ 6.68 µM)
MIC [20]: 0.03 µg/mL (≈ 0.1 µM)
MIC50 [20]: 0.03 µg/mL (≈ 0.1 µM)
MIC90 [20]: 0.125 µg/mL (≈ 0.418 µM)
MIC50 [21]: 0.03 µg/mL (≈ 0.1 µM)
MIC90 [21]: 0.03 µg/mL (≈ 0.1 µM)
MIC [22]: 0.06 µg/mL (≈ 0.2 µM)
MIC50 [22]: 0.125 µg/mL (≈ 0.418 µM)
MIC50 [23]: 0.5 µg/mL (≈ 1.67 µM)
MIC90 [23]: 0.5 µg/mL (≈ 1.67 µM)
MIC50 [24]: 0.125 µg/mL (≈ 0.418 µM)
MIC90 [24]: 0.125 µg/mL (≈ 0.418 µM)
MIC50 [25]: 4 µg/mL (≈ 13.4 µM)
MIC90 [25]: 4 µg/mL (≈ 13.4 µM)
MIC50 [26]: 1 µg/mL (≈ 3.34 µM)
MIC90 [26]: 1 µg/mL (≈ 3.34 µM)
MIC [27]: 0.25 µg/mL (≈ 0.835 µM)
MIC50 [27]: 0.25 µg/mL (≈ 0.835 µM)
MIC [28]: 0.25 µg/mL (≈ 0.835 µM)
MIC [29]: 0.125 µg/mL (≈ 0.418 µM)
MIC [30]: 0.25 µg/mL (≈ 0.835 µM)
MIC [31]: 0.125 µg/mL (≈ 0.418 µM)
MIC [32]: 0.06 µg/mL (≈ 0.2 µM)
MIC [33]: 0.5 µg/mL (≈ 1.67 µM)
MIC [34]: 1 µg/mL (≈ 3.34 µM)
MIC50 [35]: 0.125 µg/mL (≈ 0.418 µM)
MIC90 [35]: 0.25 µg/mL (≈ 0.835 µM)
MIC [36]: 0.25 µg/mL (≈ 0.835 µM)
MIC50 [36]: 0.25 µg/mL (≈ 0.835 µM)
MIC90 [36]: 0.25 µg/mL (≈ 0.835 µM)
MIC [37]: 0.125 µg/mL (≈ 0.418 µM)
MIC50 [37]: 0.125 µg/mL (≈ 0.418 µM)
MIC90 [37]: 0.25 µg/mL (≈ 0.835 µM)
MIC50 [38]: 0.5 µg/mL (≈ 1.67 µM)
MIC90 [38]: 0.5 µg/mL (≈ 1.67 µM)
MIC50 [39]: 0.5 µg/mL (≈ 1.67 µM)
MIC90 [39]: 1 µg/mL (≈ 3.34 µM)
MIC [40]: 0.25 µg/mL (≈ 0.835 µM)
MIC50 [40]: 0.25 µg/mL (≈ 0.835 µM)
MIC [41]: 0.25 µg/mL (≈ 0.835 µM)
MIC50 [41]: 0.25 µg/mL (≈ 0.835 µM)
MIC [42]: 0.03 µg/mL (≈ 0.1 µM)
MIC50 [42]: 0.03 µg/mL (≈ 0.1 µM)
MIC90 [42]: 0.25 µg/mL (≈ 0.835 µM)
MIC [43]: 0.03 µg/mL (≈ 0.1 µM)
MIC50 [43]: 0.03 µg/mL (≈ 0.1 µM)
MIC90 [43]: 0.125 µg/mL (≈ 0.418 µM)
MIC50 [44]: 0.03 µg/mL (≈ 0.1 µM)
MIC90 [44]: 0.125 µg/mL (≈ 0.418 µM)
MIC50 [45]: 0.03 µg/mL (≈ 0.1 µM)
MIC90 [45]: 0.125 µg/mL (≈ 0.418 µM)
MIC [46]: ≤ 0.016 µg/mL
MIC50 [46]: ≤ 0.016 µg/mL
MIC90 [46]: 0.06 µg/mL (≈ 0.2 µM)
MIC [47]: ≤ 0.016 µg/mL
MIC50 [47]: ≤ 0.016 µg/mL
MIC90 [47]: 0.06 µg/mL (≈ 0.2 µM)
MIC [48]: ≤ 0.016 µg/mL
MIC50 [48]: ≤ 0.016 µg/mL
MIC [49]: 0.03 µg/mL (≈ 0.1 µM)
MIC50 [49]: 0.06 µg/mL (≈ 0.2 µM)
MIC [50]: 2 µg/mL (≈ 6.68 µM)
MIC [51]: ≤ 0.016 µg/mL
